Experimental findings from patent publication US8492582B2, “N-acyl anthranilic acid derivative or salt thereof” (Toyama Chemical Co., Ltd., priority 2009, dated 2013) are described below.

Where a name gives a salt, the structure may show the parent alone.

The test system of one assay is type I collagen α1 chain mRNA in WI-38 cells. Put plainly: Type I collagen α1 chain mRNA expression inhibition test. The assay is classed as cell-based. The note with it: Homo sapiens, WI-38, 24 h, read-out: Inhibition rate (%) at 10 μmol/L. The method, then:
Human embryonic lung fibroblast cell line WI-38 cells were suspended in a Dulbecco's modified Eagle's medium containing 10% fetal calf serum, and 7.5×10^4 cells were inoculated on a 12-well plate and cultured for 3 days, or 1.5×10^5 cells were inoculated and cultured for 2 days. After the growth of the cells to a subconfluent state, the culture medium was changed to a Dulbecco's modified Eagle's medium containing 0.4% fetal calf serum and 50 μg/mL ascorbic acid, and the cells were further cultured for 24 hours. Then, a test compound was added thereto, and, one hour later, TGF-β1 was added at a final concentration of 1 ng/mL. Twenty-four hours after the addition, the total RNA was extracted from the cells using an RNA extraction kit (SV Total RNA Isolation System, Promega), and cDNA was synthesized using a reverse transcriptase (ReverTra Ace, TOYOBO). The expression level of the type I collagen al chain mRNA was analyzed with a real-time PCR instrument (ABI PRISM 7700 Sequence Detection System, Applied Biosystems) by a real-time PCR method using a premix reagent of real-time PCR (SYBR Premix Ex Taq or SYBR Premix Ex Taq II (Perfect Real Time), TaKaRa). A PCR reaction was conducted with diluted cDNA as a template, using primers specific for a type I collagen α1 chain gene or a GAPDH gene as an internal standard, and the reaction product was measured. The PCR reaction was conducted by incubation at 95° C. for 10 seconds and 45 cycles of denaturation at 95° C. for 5 seconds and annealing/extension at 60° C. for 30 seconds. The expression level of the type I collagen α1 chain mRNA was corrected with GAPDH and was expressed as a relative value when the expression level obtained in the absence of the test compound was defined as 100%.
In the case of `O=C(Nc1cc(-c2ccccc2)ccc1C(=O)O)c1ccc(-c2cccnc2)cc1O` [Example 13a, sodium 2-(2-hydroxy-4-(pyridin-3-yl)benzamido)-4-phenylbenzoate], the inhibition at 10 µM worked out at 93%.
As to `O=C(Nc1cc(-c2ccccc2)ccc1C(=O)O)c1cc(-c2ccncc2)ccc1O` [Example 19a, sodium 2-(2-hydroxy-5-(pyridin-4-yl)benzamido)-4-phenylbenzoate], the inhibition at 10 µM was found to be 83%.
The same measure, in the same setting: next, `O=C(Nc1cc(-c2ccco2)ccc1C(=O)O)c1cc(-c2cccnc2)ccc1O` [Example 44a, sodium 4-(furan-2-yl)-2-(2-hydroxy-5-(pyridin-3-yl)benzamido)benzoate]: 89%; `O=C(Nc1cc(-c2ccoc2)ccc1C(=O)O)c1cc(-c2cccnc2)ccc1O` [Example 46a, sodium 4-(furan-3-yl)-2-(2-hydroxy-5-(pyridin-3-yl)benzamido)benzoate]: 91%.
On to `CN(CCN1CCCC1)c1ccc(O)c(C(=O)Nc2cc(-c3ccccc3)ccc2C(=O)O)c1` [Example 95a, sodium 2-(2-hydroxy-5-(methyl(2-(pyrrolidin-1-yl)ethyl)amino)benzamido)-4-phenylbenzoate], for which the inhibition at 10 µM amounted to 88%.
Turning to `CN(C)CCN(C)c1ccc(C(=O)Nc2cc(-c3ccccc3)ccc2C(=O)O)c(O)c1` [Example 97a, sodium 2-(4-((2-(dimethylamino)ethyl)(methyl)amino)-2-hydroxybenzamido)-4-phenylbenzoate], the inhibition at 10 µM was 83%.

Staying with this assay, now noted: Homo sapiens; 10 μmol/L test compound; WI-38 cells, TGF-β1 1 ng/mL, 24 hours; Table 4a; read-out: Inhibition rate (%) at 10 μmol/L.
For `O=C(Nc1cc(-c2ccc3c(c2)ONO3)ccc1C(=O)O)c1cc(N2CCOCC2)ccc1O` [207a, 4-(Benzo-[1,3]-dioxazol-5-yl)-2-(2-hydroxy-5-(morpholin-4-yl)benzamido)benzoic acid], the inhibition at 10 µM worked out at 83%.
On the same count and under the same terms, next, `CN1CCCCC1c1ccc(O)c(C(=O)Nc2cc(-c3ccccc3)ccc2C(=O)O)c1` (stereo not drawn) [217a, 2-(2-hydroxy-5-(1-methylpiperidin-2-yl)benzamido)-4-phenylbenzoic acid]: 91%; `CCN1CCC(c2ccc(O)c(C(=O)Nc3cc(-c4ccccc4)ccc3C(=O)O)c2)CC1` [222a, 2-(5-(1-ethylpiperidin-4-yl)-2-hydroxybenzamido)-4-phenylbenzoic acid]: 85%; `O=C(Nc1cc(-c2ccccc2)ccc1C(=O)O)c1cc(C2CCN(CCO)CC2)ccc1O` [225a, 2-(2-hydroxy-5-(1-(2-hydroxyethyl)piperidin-4-yl)benzamido)-4-phenylbenzoic acid]: 86%.
For the molecule `O=C(Nc1cc(-c2ccccc2)ccc1C(=O)O)c1cc(Cl)ccc1O` [Example 2a, 2-(5-Chloro-2-hydroxybenzamido)-4-phenylbenzoic acid], the inhibition at 10 µM is 99%.
The same measure, in the same setting: the value for `Cc1ccc(O)c(C(=O)Nc2cc(-c3ccccc3)ccc2C(=O)O)c1` [Example 4a, 2-(2-Hydroxy-5-methylbenzamido)-4-phenylbenzoic acid] was 97%; that for `COc1ccc(C(=O)Nc2cc(-c3ccccc3)ccc2C(=O)O)c(O)c1` [Example 6a, 2-(2-Hydroxy-4-methoxybenzamido)-4-phenylbenzoic acid] was 95%.
For the molecule `COc1ccc(O)c(C(=O)Nc2cc(-c3ccccc3)ccc2C(=O)O)c1` [Example 7a, 2-(2-Hydroxy-5-methoxybenzamido)-4-phenylbenzoic acid], the inhibition at 10 µM was 94%.
On the same count and under the same terms, the value for `O=C(O)c1ccc(-c2ccccc2)cc1NC(=O)c1cccc(-c2cccnc2)c1O` [Example 16a, Sodium 2-(2-hydroxy-3-(pyridin-3-yl)benzamido)-4-phenylbenzoate] was 80%; that for `O=C(Nc1cc(-c2ccccc2)ccc1C(=O)O)c1cc(-n2cccn2)ccc1O` [Example 22a, 2-(2-hydroxy-5-(1H-pyrazol-1-yl)benzamido)-4-phenylbenzoic acid] was 97%.
Still for that read-out and setting: next, `O=C(Nc1cc(-c2ccccc2)ccc1C(=O)O)c1cc(-c2ccccn2)ccc1O` [Example 27a, 2-(2-hydroxy-5-(pyridin-2-yl)benzamido)-4-phenylbenzoic acid]: 98%; `O=C(Nc1cc(-c2ccccc2)ccc1C(=O)O)c1cc(-c2ncccn2)ccc1O` [Example 29a, 2-(2-hydroxy-5-(pyrimidin-2-yl)benzamido)-4-phenylbenzoic acid]: 90%.
The same measure, in the same setting: next, `O=C(Nc1cc(-c2ccccc2)ccc1C(=O)O)c1cc(-n2ccnc2)ccc1O` [Example 34a, 2-(2-Hydroxy-5-(1H-imidazol-1-yl)benzamido)-4-phenylbenzoic acid hydrochloride]: 82%.
For the molecule `COc1ccccc1-c1ccc(C(=O)O)c(NC(=O)c2cc(-c3ccccn3)ccc2O)c1` [Example 35a, 2-(2-Hydroxy-5-(pyridin-2-yl)benzamido)-4-(2-methoxyphenyl)benzoic acid hydrochloride], the inhibition at 10 µM turned out to be 90%.
Same read-out and setting: next, `COc1ccccc1-c1ccc(C(=O)O)c(NC(=O)c2cc(-c3cccnc3)ccc2O)c1` [Example 37a, 2-(2-hydroxy-5-(pyridin-3-yl)benzamido)-4-(2-methoxyphenyl)benzoic acid]: 94%; `Cc1cccc(C(=O)Nc2cc(-c3ccccc3)ccc2C(=O)O)c1O` [Example 41a, 2-(2-hydroxy-3-methylbenzamido)-4-phenylbenzoic acid]: 99%.
`CN1CCC(c2ccc(O)c(C(=O)Nc3cc(-c4ccccc4)ccc3C(=O)O)c2)CC1` [Example 50a, 2-(2-hydroxy-5-(1-methylpiperidin-4-yl)benzamido)-4-phenylbenzoic acid]: the inhibition at 10 µM was 75%.
On the same count and under the same terms, next, `O=C(Nc1cc(-c2ccco2)ccc1C(=O)O)c1cc(N2CCCCC2)ccc1O` [Example 65a, 4-(furan-2-yl)-2-(2-hydroxy-5-(piperidin-1-yl)benzamido)benzoic acid methanesulfonate]: 71%.
Consider `O=C(Nc1cc(-c2ccccc2)ccc1C(=O)O)c1cc(-c2ccco2)ccc1O` [Example 68a, 2-(5-(furan-2-yl)-2-hydroxybenzamido)-4-phenylbenzoic acid], for which the inhibition at 10 µM turned out to be 98%.
Still for that read-out and setting: the value for `Nc1cccc(-c2ccc(O)c(C(=O)Nc3cc(-c4ccccc4)ccc3C(=O)O)c2)n1` [Example 73a, 2-(5-(6-aminopyridin-2-yl)-2-hydroxybenzamido)-4-phenylbenzoic acid] was 96%; that for `CN(C)c1ccc(O)c(C(=O)Nc2cc(-c3ccccc3)ccc2C(=O)O)c1` [Example 76a, 2-(5-(dimethylamino)-2-hydroxybenzamido)-4-phenylbenzoic acid hydrochloride] was 72%.
The same measure, in the same setting: next, `O=C(Nc1cc(-c2ccccc2)ccc1C(=O)O)c1cc(N2CCC2)ccc1O` [Example 86a, 2-(5-(Azetidin-1-yl)-2-hydroxybenzamido)-4-phenylbenzoic acid hydrochloride]: 85%; `O=C(Nc1cc(-c2ccccc2)ccc1C(=O)O)c1cc(N2CCSCC2)ccc1O` [Example 89a, 2-(2-hydroxy-5-(thiomorpholin-4-yl)benzamido)-4-phenylbenzoic acid]: 98%.
As to `CN1CCN(c2ccc(O)c(C(=O)Nc3cc(-c4ccccc4)ccc3C(=O)O)c2)CC1` [Example 92a, 2-(2-hydroxy-5-(4-methylpiperazin-1-yl)benzamido)-4-phenylbenzoic acid dimethanesulfonate], the inhibition at 10 µM came to 84%.
